From ChEMBL document CHEMBL1147993, “Inhibitory effect of obovatal on the migration and invasion of HT1080 cells via the inhibition of MMP-2” (Bioorg Med Chem, 2007)
Active and inactive are the calls of the source. No cut-off for these calls is given here.

Columns and labels:
[1] = target: T1, 72 kDa type IV collagenase (Homo sapiens, UniProt P08253); assay: Inhibition of MMP2 expressed in insect cells
Target sequence in this assay (P08253 whole entry): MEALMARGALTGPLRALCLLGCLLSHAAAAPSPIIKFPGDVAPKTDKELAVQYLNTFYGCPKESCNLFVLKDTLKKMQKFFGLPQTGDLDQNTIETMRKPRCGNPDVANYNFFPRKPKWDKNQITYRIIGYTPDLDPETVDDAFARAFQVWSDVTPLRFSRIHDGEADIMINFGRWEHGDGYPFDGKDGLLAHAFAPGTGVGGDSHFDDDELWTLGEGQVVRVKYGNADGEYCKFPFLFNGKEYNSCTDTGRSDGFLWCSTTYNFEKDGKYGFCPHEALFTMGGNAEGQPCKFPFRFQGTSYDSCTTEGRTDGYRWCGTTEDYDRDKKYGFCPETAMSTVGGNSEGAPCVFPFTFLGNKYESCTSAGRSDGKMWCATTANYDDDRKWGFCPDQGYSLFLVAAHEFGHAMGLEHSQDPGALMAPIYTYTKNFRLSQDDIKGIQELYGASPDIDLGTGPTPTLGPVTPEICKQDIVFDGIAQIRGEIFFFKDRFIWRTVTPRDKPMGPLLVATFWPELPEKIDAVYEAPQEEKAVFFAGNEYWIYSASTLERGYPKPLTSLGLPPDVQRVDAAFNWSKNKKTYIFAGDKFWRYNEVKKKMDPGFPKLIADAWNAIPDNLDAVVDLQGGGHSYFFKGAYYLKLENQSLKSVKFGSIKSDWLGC

[2] = target: T1, 72 kDa type IV collagenase; assay: Inhibition of MMP2 in HT1080 cells at 15 uM by gelatin zymography assay; assay type: cell-based; conditions: HT-1080
Target sequence in this assay (P08253 110-660 limits assumed): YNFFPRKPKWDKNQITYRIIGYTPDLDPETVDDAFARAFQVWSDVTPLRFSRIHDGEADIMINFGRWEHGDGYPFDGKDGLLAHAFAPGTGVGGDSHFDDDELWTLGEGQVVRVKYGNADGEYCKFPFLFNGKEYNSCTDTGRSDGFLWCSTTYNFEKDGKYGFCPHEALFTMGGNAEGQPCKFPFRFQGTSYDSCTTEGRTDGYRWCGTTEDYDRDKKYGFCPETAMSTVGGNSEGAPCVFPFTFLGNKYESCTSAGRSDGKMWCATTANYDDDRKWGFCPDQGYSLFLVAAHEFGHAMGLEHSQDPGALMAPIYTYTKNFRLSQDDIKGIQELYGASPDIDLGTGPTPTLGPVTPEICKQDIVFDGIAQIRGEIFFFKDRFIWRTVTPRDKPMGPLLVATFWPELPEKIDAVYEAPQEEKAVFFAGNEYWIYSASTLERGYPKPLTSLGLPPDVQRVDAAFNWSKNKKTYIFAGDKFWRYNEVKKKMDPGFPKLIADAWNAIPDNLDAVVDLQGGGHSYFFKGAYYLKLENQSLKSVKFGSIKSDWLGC

[3] = tested on: HCT-116; assay: Growth inhibition of HCT116 cells up to 50 uM after 48 hrs by WST1 reduction assay; assay type: functional, cell-based; conditions: Homo sapiens
[4] = tested on: HT-1080; assay: Reduction of MMP2 mRNA expression in HT1080 cells at 20 uM by RT-PCR; assay type: functional, Homo sapiens; set-up: scale not given: the % may be the effect or the level left
[5] = tested on: HT-1080; assay: Inhibition of invasion of HT1080 cells at 20 uM after 24 hrs by Matrigel invasion assay relative to control; assay type: functional; conditions: Homo sapiens, HT-1080, 24 h
[6] = tested on: HFF; assay: Effect on growth of HFF cells after 48 hrs by WST1 reduction assay; assay type: cell-based; conditions: human
[7] = tested on: HT-1080; assay: Reduction of MMP2 protein expression in HT1080 cells at 20 uM ny Western blot; assay type: functional, Homo sapiens; set-up: scale not given: the % may be the effect or the level left
[8] = tested on: HT-1080; assay: Inhibition of migration of HT1080 cells at 20 uM by wound healing assay; assay type: functional, cell-based; conditions: Homo sapiens

IC50 [1]: 800 nM
Activity [2]: Active
Compound: C=CCc1ccc(Oc2cc(/C=C/C=O)cc(O)c2O)cc1 [OBOVATAL]
Activity [3]: Active
Activity [4]: 70%
inhibition at 20 µM [5]: 70%
Activity [6]: Non-toxic
Activity [7]: 70%
Activity [8]: Active
